The record followed here is US10072005B2, “4-azaindole derivatives” (EISAI R&D MANAGEMENT CO., LTD., priority 2013, dated 2018).

Chain of mAChR M1 (P11229 whole entry, looked up): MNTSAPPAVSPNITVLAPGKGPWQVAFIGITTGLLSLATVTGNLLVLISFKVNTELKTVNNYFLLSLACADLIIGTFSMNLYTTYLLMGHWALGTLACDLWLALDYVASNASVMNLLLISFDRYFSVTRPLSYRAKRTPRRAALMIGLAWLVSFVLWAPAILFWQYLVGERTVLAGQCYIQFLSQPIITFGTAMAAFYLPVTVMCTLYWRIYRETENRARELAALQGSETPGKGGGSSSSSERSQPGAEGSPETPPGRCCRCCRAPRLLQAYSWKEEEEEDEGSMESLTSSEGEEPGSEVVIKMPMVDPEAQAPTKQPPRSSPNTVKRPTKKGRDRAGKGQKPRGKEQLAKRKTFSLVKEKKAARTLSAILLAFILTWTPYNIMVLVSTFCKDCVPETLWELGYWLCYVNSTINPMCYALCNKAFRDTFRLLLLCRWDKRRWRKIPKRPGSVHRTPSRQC

The assay deals with mAChR M1 (Homo sapiens, UniProt P11229). The experiment in a line: In vitro cellular calcium flux assay, positive allosteric modulation of mAChR M1. It is filed as cell-based. Particulars: BHK cells expressing mAChR M1; EC20 carbachol; Examples 76-80 and 82-89 slightly modified procedure. How it is done:
Baby hamster kidney cells stably expressing human or rat mAChR M1 to M5 were utilised for primary and selectivity profiling activities. mAChR M2 and M4 cell lines also stably expressed the chimeric Gαqi5 G-protein.
Human mAChR M1, M3, M5 and rat M1 cells were grown in low glucose Dulbecco's Modified Eagle's Medium (DMEM) medium plus heat inactivated 10% fetal bovine serum (HI FBS) and 500 μg/ml hygromycin B^1. Human mAChR M2 and M4 cells were maintained as above with^2 the addition of 500 μg/ml G418 to the media. Cells were maintained in culture at 37° C./5% CO2 and passaged twice weekly by treatment with 0.05% Trypsin/EDTA detachment solution, centrifugation (200 g, 5 min) and re-suspension in fresh media. Following cell expansion, cells were cryopreserved at −80° C. by treatment with 0.05% Trypsin/EDTA detachment solution, centrifugation (200 g, 5 min) and re-suspension of the pellet in freezing media (90% HI FBS/10% DMSO^3) at 15E6 cells/ml^4.
Prior to assaying, cells were prepared by thawing at 37° C. in a water bath, centrifugation (200 g, 5 min) and re-suspension of the pellet in fresh media. 15000 cells per well were seeded in black, clear bottomed 384-well Greiner Bio-One plates in plating medium (DMEM/10% HI FBS) and incubated overnight at 37 C/5% CO2.
On the day of the assay, media was removed from each well and replaced with 50 μl^5 assay buffer (HBSS with 20 mM HEPES and 2.5 mM Probenecid) containing the calcium indicator, Calcium 4 (Molecular Devices). Cells were then incubated at 37° C./5% CO2 for 30 min and at room temperature.
Compound preparation was carried out by generation of 11-point, 1 in 3 serial dilution concentration response curves in 100% DMSO. Compound was then diluted 1 in 65^6 with assay buffer (HBSS with 20 mM HEPES and 2.5 mM Probenecid) prior to the addition of 10 ul^7 to the cells using a Tetra fluorometric imaging plate reader (Molecular Devices)^8. Compound driven increases in intracellular calcium flux was measured as an increase in fluorescence (494Ex, 516Em)^9.
Positive allosteric modulator pEC50 values and antagonist pIC50 values for each compound were then determined. […] The points of modification and the alternate reagents, concentrations or equipment employed in these examples were: ^1200 μg/ml hygromycin B; ^2G418 not added; ^3CELLBANKER 1; ^410E6; ^5 40 μl; ^6 1 in 99; ^7 20 μl; ^8FDSS6000 (Hamamatsu Photonics); ^9(480Ex, 540Em); ^10Spotfire (TIBCO).
In the case of `O=C(NC1CCOCC1)c1cn(Cc2ccc(F)cc2)c2cccnc12` [Example 29, 1-(4-Fluorobenzyl)-N-(tetrahydro-2H-pyran-4-yl)-1H-pyrrolo[3,2-b]pyridine-3-carboxamide], the “pEC50 for positive allosteric modulation” value came to 5.8.

On to `COc1ccc(Cn2cc(C(=O)N[C@H]3CCCC[C@@H]3O)c3ncccc32)cc1` [Example 93, N-((1S,2S)-2-hydroxycyclohexyl)-1-(4-methoxybenzyl)-1H-pyrrolo[3,2-b]pyridine-3-carboxamide], for which the “pEC50 for positive allosteric modulation” value was 6.9.

As for `COc1ccc2c(n1)c(C(=O)N[C@H]1CCCC[C@@H]1O)cn2Cc1ccc(F)cc1` [Example 38, 1-(4-Fluorobenzyl)-N-((1S,2S)-2-hydroxycyclohexyl)-5-methoxy-1H-pyrrolo[3,2-b]pyridine-3-carboxamide], the “pEC50 for positive allosteric modulation” value amounted to 5.8.

`Cc1ccnc2c(C(=O)N[C@H]3CCCC[C@@H]3O)cn(Cc3ccc(OC(F)(F)F)cc3)c12` [Example 100, N-((1S,2S)-2-hydroxycyclohexyl)-7-methyl-1-(4-(trifluoromethoxy)benzyl)-1H-pyrrolo[3,2-b]pyridine-3-carboxamide]: the “pEC50 for positive allosteric modulation” value came out at 6.8.

On to `Cn1cc(Cn2cc(C(=O)N[C@H]3CCCC[C@@H]3O)c3nccc(Cl)c32)cn1` [Example 72, 7-Chloro-N-((1S,2S)-2-hydroxycyclohexyl)-1-((1-methyl-1H-pyrazol-4-yl)methyl)-1H-pyrrolo[3,2-b]pyridine-3-carboxamide], for which the “pEC50 for positive allosteric modulation” value is 7.8.

`O=C(N[C@H]1CCCNC1)c1cn(Cc2ccc(-n3cccn3)cc2)c2cccnc12` [Example 52, (S)-1-(4-(1H-Pyrazol-1-yl)benzyl)-N-(piperidin-3-yl)-1H-pyrrolo[3,2-b]pyridine-3-carboxamide]: the “pEC50 for positive allosteric modulation” value is on record as 6.7.

With `Cc1ccnc2c(C(=O)N[C@H]3CCCC[C@@H]3O)cn(Cc3cccc(F)c3)c12` [Example 65, 1-(3-Fluorobenzyl)-N-((1S,2S)-2-hydroxycyclohexyl)-7-methyl-1H-pyrrolo[3,2-b]pyridine-3-carboxamide], the “pEC50 for positive allosteric modulation” value stood at 7.7.

On to `Cc1ccnc2c(C(=O)N[C@H]3CCCC[C@@H]3O)cn(Cc3ccc(Cl)cn3)c12` [Example 81, 1-((5-Chloropyridin-2-yl)methyl)-N-((1S,2S)-2-hydroxycyclohexyl)-7-methyl-1H-pyrrolo[3,2-b]pyridine-3-carboxamide], for which the “pEC50 for positive allosteric modulation” value was 7.2.

As for `Cc1ccc(Cn2cc(C(=O)N[C@H]3CCCC[C@@H]3O)c3nccc(C)c32)nc1` [Example 64, N-((1S,2S)-2-Hydroxycyclohexyl)-7-methyl-1-((5-methylpyridin-2-yl)methyl)-1H-pyrrolo[3,2-b]pyridine-3-carboxamide], the “pEC50 for positive allosteric modulation” value was 7.2.

Regarding `Cc1ccc(Cn2cc(C(=O)N[C@H]3CCCC[C@@H]3O)c3ncccc32)cn1` [Example 25, N-((1S,2S)-2-Hydroxycyclohexyl)-1-((6-methylpyridin-3-yl)methyl)-1H-pyrrolo[3,2-b]pyridine-3-carboxamide], the “pEC50 for positive allosteric modulation” value is listed as 6.2.

On to `COc1cc(Cn2cc(C(=O)N[C@H]3CCCC[C@@H]3O)c3nccc(Cl)c32)ccn1` [Example 69, 7-Chloro-N-((1S,2S)-2-hydroxycyclohexyl)-1-((2-methoxypyridin-4-yl)methyl)-1H-pyrrolo[3,2-b]pyridine-3-carboxamide], for which the “pEC50 for positive allosteric modulation” value is on record as 8.0.

As to `O=C(N[C@H]1CCCC[C@@H]1O)c1cn(Cc2ccc(Br)cc2)c2cccnc12` [Example 56, 1-(4-Bromobenzyl)-N-((1S,2S)-2-hydroxycyclohexyl)-1H-pyrrolo[3,2-b]pyridine-3-carboxamide], the “pEC50 for positive allosteric modulation” value turned out to be 6.5.

Take `COc1ccnc2c(C(=O)N[C@H]3CCCC[C@@H]3O)cn(Cc3ccc(F)cc3)c12` [Example 37, 1-(4-Fluorobenzyl)-N-((1S,2S)-2-hydroxycyclohexyl)-7-methoxy-1H-pyrrolo[3,2-b]pyridine-3-carboxamide]: the “pEC50 for positive allosteric modulation” value is reported as 6.7.
